From patent publication EP0801949A1, “Hypoglycemic quinone derivative” (Eisai Co., Ltd., priority 1996, dated 1997) come the findings set out here.

Format in all cases: in vivo
The subject of series [1] is KK-Ay/Ta mice. Nature of the series: Blood sugar level in type-II diabetes model mice, oral dosing twice daily for 14 days. Particulars: for Blood sugar level: male KK-Ay/Ta mice, average ± standard error, N=6. The source says: (§1) Use was made of 22-week old male KK-Ay/Ta mice (type-II diabetes model mice available from Clea Japan Inc.). Restricted feeding was effected such that the animals were starved from 9:00 a.m. to 5:00 p.m. daily through the experimental period.
(§2) (E)-3-[2-(5,6-Dimethoxy-3-methyl-1,4-benzoquinonyl)]-2-nonylpropenoic acid as a representative example of the compounds of the present invention was suspended in 0.5% methylcellulose (MC) and orally administered twice 9:00 a.m. and 5:00 p.m. daily for 14 days in accordance with the following schedule.
(§3) The 0.5% methylcellulose (MC) was administered to a control group in the same manner as above.
(§4) All blood specimens were collected from the cardal veins, and blood sugar and blood insulin levels were measured on the day preceding the administration (day 0) and 3 days (day 3), 7 days (day 7), 10 days (day 10) and 14 days (day 14) after the administration. Hemoglobin AIc (HbAIc) was measured on day 0 and day 14. The measurements of blood sugar level, blood insulin level and HbAIc were conducted by the use of Fuji Dry-Chem System 5500 (manufactured by Fuji Medical Systems Co., Ltd.), insulin measuring kit (EIA sandwich method, manufactured by Morinaga Seikagaku Kenkyusho) and DCA 2000 System (manufactured by Bayer Diagnosics), respectively. The results are expressed by the average ± standard error with respect to each group. The significant difference test as compared with the control group was performed by the Student t-test.

The test system of series [2] is SD rat. Nature of the series: Single administration toxicity test in rat (lethal dose). To be noted: observed for 14 days. The source says: (§5) (E)-3-[2-(5,6-Dimethoxy-3-methyl-1,4-benzoquinonyl)]-2-nonylpropenoic acid was used as a test compound.
Series [3] deals with KK-Ay/Ta mice. Nature of the series: Hemoglobin AIc (HbAIc) in type-II diabetes model mice, oral dosing twice daily for 14 days. Particulars: 300 mg/Kg/day p.o. for 14 days, KK-Ay/Ta mice (Table 3).
Source text: as §1, §2, §3
as §4, with “The significant difference test as compared with the control group was performed by the Student t-test.” left out

Series [4] deals with beagle. Nature of the series: Single administration toxicity test in beagle (lethal dose). Particulars: p.o., observed for 21 days.
Source text: as §5

SMILES strings stand for the structures. Bounds are passed on as bounds.

With `CCCCCCCCC/C(=C\C1=C(C)C(=O)C(OC)=C(OC)C1=O)C(=O)O` [invention compd., (E)-3-[2-(5,6-Dimethoxy-3-methyl-1,4-benzoquinonyl)]-2-nonylpropenoic acid], in series [1] (300 mg/Kg/day p.o. for 14 days, KK-Ay/Ta mice, compared with the control group (Table 2, Fig. 1)), the “hypoglycemic effect (in words)” value was “excellent hypoglycemic effect”. Also, the Blood sugar level in series [1] (Day 0 (day preceding the administration, baseline)) came out at 465.7 ± 21.51 mg/dL; in series [1] (Day 0 (day preceding the administration, baseline), listed as the compound of the present invention), 465.7 ± 21.51 mg/dL; in series [1] (Day 3, 300 mg/Kg/day p.o. (100 a.m. + 200 p.m.), 300 mg/kg/day) it was 380.8 ± 52.42 mg/dL; in series [1] (Day 3, 300 mg/Kg/day p.o. (100 a.m. + 200 p.m.), listed as the compound of the present invention, 300 mg/kg/day), 380.8 ± 52.42 mg/dL; in series [1] (Day 7, 300 mg/Kg/day p.o. (100 a.m. + 200 p.m.), 300 mg/kg/day) it was 319.8 ± 27.49 mg/dL; in series [1] (Day 7, 300 mg/Kg/day p.o. (100 a.m. + 200 p.m.), listed as the compound of the present invention, 300 mg/kg/day), 319.8 ± 27.49 mg/dL. In addition, the Blood sugar level in series [1] (Day 10, 300 mg/Kg/day p.o. (100 a.m. + 200 p.m.), 300 mg/kg/day) is 334.3 ± 33.75 mg/dL; in series [1] (Day 10, 300 mg/Kg/day p.o. (100 a.m. + 200 p.m.), listed as the compound of the present invention, 300 mg/kg/day), 334.3 ± 33.75 mg/dL; in series [1] (Day 14, 300 mg/Kg/day p.o. (100 a.m. + 200 p.m.), 300 mg/kg/day), 280.2 ± 37.31 mg/dL; in series [1] (Day 14, 300 mg/Kg/day p.o. (100 a.m. + 200 p.m.), listed as the compound of the present invention, 300 mg/kg/day), 280.2 ± 37.31 mg/dL. Moreover, the Lethal dose in series [2] (i.v.) was more than 60 mg/kg; in series [2] (p.o.), 2000 mg/kg; in series [4] it was more than 400 mg/kg. In addition, in series [3], the “HbAIc change as compared with the control group (in words)” value is given as “decrease trend”.
